Measured values taken from US20040186021A1, “Substituted benzo-nitro-heterocycles” (priority 2001, published 2004).

What was measured:
[1] = tested on: weeds; assay: Post-emergence test (Example B); type: in vivo; details: test plants of 5-15 cm sprayed, rated after three weeks
Procedure: To produce a suitable preparation of active compound, one part by weight of active compound is mixed with the stated amount of solvent, the stated amount of emulsifier is added and the concentrate is diluted with water to the desired concentration.
Test plants of a height of 5-15 cm are sprayed with the preparation of active compounds such that the particular amounts of active compounds desired are applied per unit area. The concentration of the spray liquor is chosen such that the particular amounts of active compounds desired are applied in 1000 l of water/ha.
After three weeks, the degree of damage to the plants is rated in % damage in comparison to the development of the untreated control.
0%=no effect (like untreated control)

[2] = tested on: weeds; assay: Pre-emergence test (Example A); type: in vivo; details: soil sprayed 24 hours after sowing, rated after three weeks
Procedure: Pre-Emergence Test [table] To produce a suitable preparation of active compound, one part by weight of active compound is mixed with the stated amount of solvent, the stated amount of emulsifier is added and the concentrate is diluted with water to the desired concentration. Seeds of the test plants are sown in normal soil. After 24 hours, the soil is sprayed with the preparation of active compounds such that the particular amount of active compound desired is applied per unit area. The concentration of active compound in the spray liquor is chosen such that the particular amount of active compound desired is applied in 1000 litres of water per hectare. After three weeks, the degree of damage to the plants is rated in % damage in comparison to the development of untreated control. The figures denote: 0%=no effect (like untreated control) 100%=total destruction

[3] = logP determination by HPLC (reversed-phase column C 18), EC Directive 79/831 Annex V.A8; type: physicochemical; details: for logP a): acetonitrile, 43° C.; for chromatographic logP: reversed-phase HPLC column (C 18), at pH=2
Procedure: LogP values given in Table 1 were determined in accordance with EC Directive 79/831 Annex V.A8 by HPLC (High Performance Liquid Chromatography) using a reversed-phase column (C 18). Temperature: 43° C. (a) Mobile phases for the determination in the acidic range: 0.1% aqueous phosphoric acid, acetonitrile; linear gradient from 10% acetonitrile to 90% acetonitrile—the corresponding measurement results in Table 1 are marked ^a). (b) Mobile phases for the determination in the neutral range: 0.01 molar aqueous phosphate buffer solution, acetonitrile; linear gradient from 10% acetonitrile to 90% acetonitrile—the corresponding measurement results in Table 1 are marked ^b). Calibration was carried out using unbranched alkan-2-ones (having 3 to 16 carbon atoms) with known logP values (determination of the logP values by the retention times using linear interpolation between two successive alkanones).

[4] = Table 1; a) acidic range: 0.1% aqueous phosphoric acid
[5] = Table 2, compounds of formula (II); a) acidic range: 0.1% aqueous phosphoric acid

logP a) [3, 4] | Structure (SMILES) | action against weeds (degree of damage to the plants) [1] | action against weeds (degree of damage to the plants) [2] | other results
2.38^a) | CC(C)OC(=O)CN1C(=O)COc2cc(F)c(-n3c(=O)cc(C(F)(F)F)n(N)c3=O)cc21 [Example 10] | very strong action against weeds | very strong action against weeds | –
1.57^a) | N#CCN1C(=O)COc2ccc(-n3c(=O)cc(C(F)(F)F)n(N)c3=O)cc21 [Example 6] | very strong action against weeds | very strong action against weeds | –
1.83^a) | N#CCN1C(=O)COc2cc(F)c(-n3c(=O)cc(C(F)(F)F)n(N)c3=O)cc21 [Example 5] | very strong action against weeds | very strong action against weeds | –
– | COC(=O)CN1C(=O)COc2ccc(-n3c(=O)cc(C(F)(F)F)n(N)c3=O)cc21 [Example 11] | very strong action against weeds | very strong action against weeds | –
1.90^a) | COC(=O)CN1C(=O)COc2cc(F)c(-n3c(=O)cc(C(F)(F)F)n(N)c3=O)cc21 [Example 7] | very strong action against weeds | very strong action against weeds | –
2.37^a) | CC(C)(C)OC(=O)CN1C(=O)COc2ccc(-n3c(=O)cc(C(F)(F)F)n(N)c3=O)cc21 [Example 13] | – | – | –
– | Nn1c(C(F)(F)F)cc(=O)n(-c2cc3[nH]c(=O)sc3cc2F)c1=O [II-1, 1-amino-3-(6-fluoro-2,3-dihydro-2-oxo-1,3-benzothiazol-5-yl)-6-trifluoromethyl-2,4(1H,3H)-pyrimidinedione] | – | – | chromatographic logP [3]: 1.66
2.19^a) | N#Cn1c(=O)sc2cc(F)c(-n3c(=O)cc(C(F)(F)F)n(N)c3=O)cc21 [Example 30] | – | – | –
2.14^a) | CC(C)OC(=O)CN1C(=O)COc2ccc(-n3c(=O)cc(C(F)(F)F)n(N)c3=O)cc21 [Example 12] | very strong action against weeds | very strong action against weeds | –
2.98^a) | CCOC(=O)C=C(n1c(=O)sc2cc(F)c(-n3c(=O)cc(C(F)(F)F)n(N)c3=O)cc21)C(F)(F)F [Example 24] | – | – | –
2.14^a) | CCOC(=O)CN1C(=O)COc2cc(F)c(-n3c(=O)cc(C(F)(F)F)n(N)c3=O)cc21 [Example 8] | very strong action against weeds | very strong action against weeds | –
– | O=c1[nH]c2cc(-n3c(=O)cc(C(F)(F)F)[nH]c3=O)c(F)cc2s1 [3-(6-fluoro-2,3-dihydro-2-oxo-1,3-benzothiazol-5-yl)-6-trifluoromethyl-2,4(1H,3H)-pyrimidinedione] | – | – | chromatographic logP [3]: 1.48
– | CCOC(=O)n1c(=O)sc2cc(F)c(-n3c(=O)cc(C(F)(F)F)n(N)c3=O)cc21 [Example 2, ethyl 5-(3-amino-3,6-dihydro-2,6-dioxo-4-trifluoromethyl-1(2H)-pyrimidynyl)-6-fluoro-2-oxo-3(2H)-benzothiazole carboxylate] | – | – | chromatographic logP [3]: 2.44
2.60^a) | CC(C)(C)OC(=O)CN1C(=O)COc2cc(F)c(-n3c(=O)cc(C(F)(F)F)n(N)c3=O)cc21 [Example 9] | very strong action against weeds | very strong action against weeds | –
2.46^a) | COC(=O)C=C(CCl)n1c(=O)sc2cc(F)c(-n3c(=O)cc(C(F)(F)F)n(N)c3=O)cc21 [Example 22] | – | – | –
– | Nn1c(C(F)(F)F)cc(=O)n(-c2cc3c(cc2F)OCC(=O)N3)c1=O [II-3] | – | – | logP a) [3, 5]: logP = 1.57^a)
1.97^a) | N#CCn1c(=O)sc2cc(F)c(-n3c(=O)cc(C(F)(F)F)n(N)c3=O)cc21 [Example 4] | – | – | –
2.36^a) | CC(=O)n1c(=O)sc2cc(F)c(-n3c(=O)cc(C(F)(F)F)n(N)c3=O)cc21 [Example 14] | – | – | –
2.51^a) | CCOC(=O)C=CCn1c(=O)sc2cc(F)c(-n3c(=O)cc(C(F)(F)F)n(N)c3=O)cc21 [Example 25] | – | – | –
– | Nn1c(C(F)(F)F)cc(=O)n(-c2ccc3c(c2)NC(=O)CO3)c1=O [II-2] | – | – | logP a) [3, 5]: logP = 1.22^a)
– | CS(=O)(=O)n1c(=O)sc2cc(F)c(-n3c(=O)cc(C(F)(F)F)n(N)c3=O)cc21 [Example 3, 1-amino-3-(6-fluoro-2,3-dihydro-3-methylsulphonyl-2-oxo-5-benzothiazolyl)-6-trifluoromethyl-2,4(1H,3H)-pyrimidinedione] | – | – | chromatographic logP [3]: 2.16
– | CCOC(=O)CN1C(=O)COc2ccc(-n3c(=O)cc(C(F)(F)F)n(N)c3=O)cc21 [Example 1, ethyl 6-(3-amino-3,6-dihydro-2,6-dioxo-4-trifluoromethyl-1 (2H)-pyrimidynyl)-2,3-dihydro-3-oxo-4H-1,4-benzoxazine-4-acetate] | very strong action against weeds | very strong action against weeds | chromatographic logP [3]: 1.9
3.17^a) | CC(C)COC(=O)n1c(=O)sc2cc(F)c(-n3c(=O)cc(C(F)(F)F)n(N)c3=O)cc21 [Example 23] | – | – | –
